Reference: patent US20250136618A1, “ANTIBIOTIC PYRAZINOTHIAZINE DERIVATIVES AND PROCESS OF PREPARATION THEREOF” (Bugworks Research India PVT Ltd, priority 2021, published 2025)
≈ marks a conversion by molar mass, not a printed value.

Tests used:
Type in all cases: cell-based
[1] = test system: CHO-K1 cells; assay: In-vitro micronucleus assay
Experimental: Genetic toxicology studies were performed on the compounds of the present disclosure to assess their ability to cause DNA damage. The in-vitro micronucleus assay measured the concentration (μM) of the compound at which micronuclei formation occurred. A micronuclei formation at lower concentration indicates more genetic damage or genotoxicity.
Micronucleus formation is a hallmark of genotoxicity, and the micronucleus assay is an important component of genotoxicity screening. Micronuclei are chromatin-containing bodies that represent fragments or even whole chromosomes that were not incorporated into a daughter cell nucleus at mitosis. The purpose of the assay is to detect agents that induce chromosome damage leading to the induction of micronuclei in interphase cells. The in vitro micronucleus assay was conducted in CHO-K1 cells according to the procedure described by Diaz, D et al [Mutat Res. 630(1-2):1-13. […] The formation of the micronucleus is identified by image-based high content analysis from binucleated cells.

[2] = test system: Enterococcus faecalis ATCC 29212; assay: Minimum Inhibitory Concentration (MIC) in LB media; conditions: Enterococcus faecalis, ATCC29212, read-out: Minimum Inhibitory Concentration E. faecalis ATCC 29212
Excerpt: (§1) The compounds of Formula Ia and Formula Ib are of interest due to their potent antibacterial effects. The ability of the compounds disclosed herein to achieve an antibacterial effect may be evaluated with regard to their ability to inhibit the growth of bacterial species like Escherichia coli ATCC 25922, Staphylococcus aureus ATCC 29213, Klebsiella pneumoniae ATCC 13883, Acinetobacter baumannii ATCC 19606, Pseudomonas aeruginosa ATCC 27853 and Enterococcus faecalis ATCC 29212 using an assay based on the following Minimum Inhibitory Concentration (MIC) protocol:
(§2) The test bacteria were grown in Luria Bertani Broth (HIMEDIA M1245), 25 g of the powder was dissolved in 1000 ml distilled water and sterilized by autoclaving at 15 lbs pressure (121° C.) for 20 minutes. The medium sterility was checked by incubating at 37° C. for a period of 48 h. Bacterial cultures that were stored as glycerol stocks at −80° C. were subcultured on LB agar plates to obtain isolated colonies. A single colony of each strain was cultured in LB broth. The cultures were incubated at 37° C., 200 rpm till they reached an optical density (OD at 600 nm) of 0.8 to 1. This log phase culture was diluted in LB broth to a cell number of 5-8*10^5 CFU/mL to be used as inoculum for MIC experiments. Test compounds were dissolved in dimethyl sulfoxide (DMSO) to a stock concentration of 4 mg/ml. A two-fold dilution series of this DMSO stock was prepared in a 96 well V bottom microtitre plate from rows A to H. A 3 μL volume of these dilutions are transferred to a 96-well flat bottom microtitre assay plate. Controls to monitor the effects of DMSO and media sterility were included. Each well was inoculated with 150 μL of the above diluted culture. The plates were incubated at 37° C. overnight in a humidified incubator. The following morning, the plates were read using a Spectrophotometer at 600 nm wavelength. […] The antibacterial activity (MIC) determined against representative gram-positive (S. aureus, E. faecalis) and gram-negative (E. coli, Aeruginosa, K. pneumoniae, and A. baumannii) pathogen are reported Table 1.

[3] = test system: Staphylococcus aureus ATCC 29213; assay: Minimum Inhibitory Concentration (MIC) in LB media; conditions: Staphylococcus aureus, ATCC29213, read-out: Minimum Inhibitory Concentration S. aureus ATCC 29213
Excerpt: as §1, §2

[4] = test system: Acinetobacter baumannii ATCC 19606; assay: Minimum Inhibitory Concentration (MIC) in LB media; conditions: Acinetobacter baumannii, ATCC19606
Excerpt: as §1, §2

[5] = test system: Klebsiella pneumoniae ATCC 13883; assay: Minimum Inhibitory Concentration (MIC) in LB media; conditions: Klebsiella pneumoniae, ATCC13883, read-out: Minimum Inhibitory Concentration K. pneumoniae ATCC 13883
Excerpt: as §1, §2

[6] = test system: Pseudomonas aeruginosa ATCC 27853; assay: Minimum Inhibitory Concentration (MIC) in LB media; conditions: Pseudomonas aeruginosa, ATCC27853
Excerpt: as §1, §2

[7] = test system: Escherichia coli ATCC 25922; assay: Minimum Inhibitory Concentration (MIC) in LB media; conditions: Escherichia coli, ATCC25922, read-out: Minimum Inhibitory Concentration E. coli ATCC 25922
Excerpt: as §1, §2

[8] = biological target: hERG potassium channel (Homo sapiens (Human), UniProt Q12809); assay: hERG inhibition assay (Qpatch HTX automated electrophysiology); conditions: CHO cell line expressing hERG, whole-cell patch clamp
Sequence of hERG potassium channel (Q12809 whole entry): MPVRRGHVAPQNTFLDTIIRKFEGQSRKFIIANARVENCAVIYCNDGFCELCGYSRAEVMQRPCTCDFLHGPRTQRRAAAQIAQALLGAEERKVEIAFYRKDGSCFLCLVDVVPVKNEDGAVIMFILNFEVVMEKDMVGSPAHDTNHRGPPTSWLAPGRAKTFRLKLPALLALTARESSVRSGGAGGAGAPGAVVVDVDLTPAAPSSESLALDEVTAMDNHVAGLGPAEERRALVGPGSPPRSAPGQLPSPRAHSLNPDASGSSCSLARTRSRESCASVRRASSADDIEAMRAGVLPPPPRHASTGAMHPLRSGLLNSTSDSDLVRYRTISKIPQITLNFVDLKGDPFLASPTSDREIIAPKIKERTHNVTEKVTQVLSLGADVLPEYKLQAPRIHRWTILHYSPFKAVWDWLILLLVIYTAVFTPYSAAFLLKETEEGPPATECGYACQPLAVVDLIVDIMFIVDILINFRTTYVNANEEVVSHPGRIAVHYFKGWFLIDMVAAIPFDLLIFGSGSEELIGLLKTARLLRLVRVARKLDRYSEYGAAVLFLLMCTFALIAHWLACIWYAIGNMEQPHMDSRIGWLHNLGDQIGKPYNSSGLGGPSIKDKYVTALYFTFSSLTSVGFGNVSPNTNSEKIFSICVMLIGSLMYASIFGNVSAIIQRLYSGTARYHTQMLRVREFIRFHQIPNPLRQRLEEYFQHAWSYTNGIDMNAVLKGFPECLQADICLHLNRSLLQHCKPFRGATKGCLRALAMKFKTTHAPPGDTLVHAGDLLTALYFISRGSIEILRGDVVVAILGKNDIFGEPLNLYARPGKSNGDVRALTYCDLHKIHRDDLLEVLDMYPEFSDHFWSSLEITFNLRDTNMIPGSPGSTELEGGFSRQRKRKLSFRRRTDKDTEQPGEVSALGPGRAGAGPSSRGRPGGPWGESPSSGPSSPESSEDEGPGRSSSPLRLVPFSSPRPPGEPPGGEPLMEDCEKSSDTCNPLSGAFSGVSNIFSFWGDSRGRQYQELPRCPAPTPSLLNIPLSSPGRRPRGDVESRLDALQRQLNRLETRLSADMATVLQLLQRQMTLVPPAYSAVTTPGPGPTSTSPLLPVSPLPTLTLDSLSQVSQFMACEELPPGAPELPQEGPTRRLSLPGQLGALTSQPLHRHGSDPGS
Experimental: Electrophysiological recordings were made from a Chinese Hamster Ovary cell line stably expressing the full-length hERG potassium channel. Single cell ionic currents were measured in whole-cell patch clamp configuration at room temperature (21-23° C.) using the Qpatch HTX platform (Sophion). Intracellular solution contained (mM): 120 KF, 20 KCl, 10 EGTA, 10 HEPES and was buffered to pH 7.3. […] Cells were clamped at a holding potential of −80 mV. Cells were stepped to +20 mV for 2 s then −40 mV for 3 s before returning to the holding potential. […] Compounds were then incubated for 2 minutes prior to a second measurement of ion channel current using an identical pulse train.

[9] = test system: Proteus mirabilis; assay: MIC90 determination, clinical strains (CLSI); conditions: N=12
[10] = test system: Klebsiella pneumoniae; assay: MIC90 determination, clinical strains (CLSI); conditions: N=86
[11] = test system: Serratia marcescens; assay: MIC90 determination, clinical strains (CLSI); conditions: N=15
[12] = test system: Klebsiella aerogenes, K. oxytoca; assay: MIC90 determination, clinical strains (CLSI); conditions: N=17
[13] = test system: Pseudomonas aeruginosa; assay: MIC90 determination, clinical strains (CLSI); conditions: N=34
[14] = test system: Enterobacter cloacae; assay: MIC90 determination, clinical strains (CLSI); conditions: N=26
[15] = test system: Acinetobacter baumannii; assay: MIC90 determination, clinical strains (CLSI); conditions: N=38
[16] = test system: Escherichia coli; assay: MIC90 determination, clinical strains (CLSI); conditions: N=38
[17] = test system: Providencia rettgeri, P. stuartii; assay: MIC90 determination, clinical strains (CLSI); conditions: N=12
[18] = test system: Citrobacter freundii; assay: MIC90 determination, clinical strains (CLSI); conditions: N=19
[19] = test system: Morganella morganii; assay: MIC90 determination, clinical strains (CLSI); conditions: N=11

Row | SMILES | genotoxicity risk (in words) [1] | % (in-vitro micronucleus assay) ([1]; Chinese hamster) | In vitro micronucleus forming concentration ([1]; Chinese hamster) | MIC [2] | MIC [3] | MIC [4] | MIC [5] | MIC [6] | MIC [7] | IC50 [8] | also measured
1 | [2H]C([2H])([2H])N1C(=O)CNc2ccc(OCCNCC3CN(c4cnc5c(n4)NC(=O)CS5)C(=O)O3)nc21 (stereo in doubt) [Compound 9, (R)-5-(((2-((4-(methyl-d3)-3-oxo-1,2,3,4-tetrahydropyrido[2,3-b]pyrazin-6-yl)oxy)ethyl)amino)methyl)-3-(3-oxo-3,4-dihydro-2H-pyrazino[2,3-b][1,4]thiazin-6-yl) oxazolidin-2-one] | completely devoid of any genotoxicity risk | 0.51% | >1000 µM | 0.03 µg/mL (≈ 0.0613 µM) | < 0.015 µg/mL | 0.03 µg/mL (≈ 0.0613 µM) | 0.06 µg/mL (≈ 0.123 µM) | 1 µg/mL (≈ 2.04 µM) | 0.06 µg/mL (≈ 0.123 µM) | 141 µM | 
2 | O=C(O)c1cn(C2CC2)c2cc(N3CCNCC3)c(F)cc2c1=O [Ciprofloxacin, reference compound] |  |  |  | 0.4 µg/mL (≈ 1.21 µM) | 0.4 µg/mL (≈ 1.21 µM) | 0.4 µg/mL (≈ 1.21 µM) | 0.05 µg/mL (≈ 0.151 µM) | 0.1 µg/mL (≈ 0.302 µM) | 0.012 µg/mL (≈ 0.0362 µM) |  | 
3 | CN1C(=O)CNc2ccc(OCCNC[C@@H]3CN(c4cnc5c(n4)NC(=O)CS5)C(=O)O3)nc21 [Compound 5, (R)-5-(((2-((4-methyl-3-oxo-1,2,3,4-tetrahydropyrido[2,3-b]pyrazin-6-yl)oxy)ethyl)amino)methyl)-3-(3-oxo-3,4-dihydro-2H-pyrazino[2,3-b][1,4]thiazin-6-yl)oxazolidin-2-one] | completely devoid of any genotoxicity risk | 0.5% | >1000 µM | 0.125 µg/mL (≈ 0.257 µM) | < 0.015 µg/mL | 0.06 µg/mL (≈ 0.123 µM) | 0.06 µg/mL (≈ 0.123 µM) | 1 µg/mL (≈ 2.06 µM) | 0.03 µg/mL (≈ 0.0617 µM) | > 300 µM | micronucleus formation (in words) [1]: did not induce micronucleus formation
4 | CN1C(=O)CNc2ccc(OCCNC[C@H]3CN(c4cnc5c(n4)NC(=O)CS5)C(=O)O3)nc21 [Compound 6, (S)-5-(((2-((4-methyl-3-oxo-1,2,3,4-tetrahydropyrido[2,3-b]pyrazin-6-yl)oxy)ethyl)amino)methyl)-3-(3-oxo-3,4-dihydro-2H-pyrazino[2,3-b][1,4]thiazin-6-yl)oxazolidin-2-one] | completely devoid of any genotoxicity risk | 0.4% | >1000 µM | 0.06 µg/mL (≈ 0.123 µM) | < 0.015 µg/mL | 0.06 µg/mL (≈ 0.123 µM) | 0.06 µg/mL (≈ 0.123 µM) | 0.5 µg/mL (≈ 1.03 µM) | 0.06 µg/mL (≈ 0.123 µM) | > 300 µM | micronucleus formation (in words) [1]: did not induce micronucleus formation
5 | CN1C(=O)CNc2cc(F)c(OCCNC[C@@H]3CN(c4cnc5c(n4)NC(=O)CS5)C(=O)O3)nc21 [Compound 7, (R)-5-(((2-((7-fluoro-4-methyl-3-oxo-1,2,3,4-tetrahydropyrido[2,3-b]pyrazin-6-yl)oxy)ethyl)amino)methyl)-3-(3-oxo-3,4-dihydro-2H-pyrazino[2,3-b][1,4]thiazin-6-yl)oxazolidin-2-one] | completely devoid of any genotoxicity risk | 0.41% | >1000 µM | 0.06 µg/mL (≈ 0.119 µM) | < 0.015 µg/mL | 0.03 µg/mL (≈ 0.0595 µM) | 0.06 µg/mL (≈ 0.119 µM) | 1 µg/mL (≈ 1.98 µM) | 0.03 µg/mL (≈ 0.0595 µM) | > 300 µM | 
6 | CN1C(=O)CNc2cc(F)c(OCCNC[C@H]3CN(c4cnc5c(n4)NC(=O)CS5)C(=O)O3)nc21 [Compound 8, (S)-5-(((2-((7-fluoro-4-methyl-3-oxo-1,2,3,4-tetrahydropyrido [2,3-b]pyrazin-6-yl)oxy)ethyl)amino)methyl)-3-(3-oxo-3,4-dihydro-2H-pyrazino[2,3-b][1,4]thiazin-6-yl)oxazolidin-2-one] | completely devoid of any genotoxicity risk | 0.5% | >1000 µM | 0.125 µg/mL (≈ 0.248 µM) | < 0.015 µg/mL | 0.06 µg/mL (≈ 0.119 µM) | 0.06 µg/mL (≈ 0.119 µM) | 1 µg/mL (≈ 1.98 µM) | 0.03 µg/mL (≈ 0.0595 µM) | > 300 µM | 
7 | C[C@@H](O)[C@H]1C(=O)N2C(C(=O)O)=C(S[C@@H]3CN[C@H](C(=O)N(C)C)C3)[C@H](C)[C@H]12 [Meropenem, reference compound] |  |  |  |  |  |  |  |  |  |  | MIC 90 Proteus mirabilis [9]: 1 µg/mL (≈ 2.61 µM); MIC 90 Klebsiella pneumoniae [10]: 16 µg/mL (≈ 41.7 µM); MIC 90 Serratia marcescens [11]: 16 µg/mL (≈ 41.7 µM); MIC 90 Klebsiella aerogenes, K. oxytoca [12]: 16 µg/mL (≈ 41.7 µM); MIC 90 Pseudomonas aeruginosa [13]: 16 µg/mL (≈ 41.7 µM); MIC 90 Enterobacter cloacae [14]: 16 µg/mL (≈ 41.7 µM); MIC 90 Acinetobacter baumannii [15]: >8 µg/mL; MIC 90 Escherichia coli [16]: 2 µg/mL (≈ 5.22 µM); MIC 90 Providencia rettgeri, P. stuartii [17]: 4 µg/mL (≈ 10.4 µM); MIC 90 Citrobacter freundii [18]: 8 µg/mL (≈ 20.9 µM); MIC 90 Morganella morganii [19]: 0.12 µg/mL (≈ 0.313 µM)
8 | CO[C@@]12[C@H](COC(N)=O)C3=C(C(=O)C(C)=C(N)C3=O)N1C[C@@H]1N[C@@H]12 [Mitomycin C, reference compound] |  |  |  |  |  |  |  |  |  |  | % (in-vitro micronucleus assay) ([1]; CHO-K1 cells): 1.98%; In vitro micronucleus forming concentration ([1]; CHO-K1 cells): 0.300 µM
